Laboratory results from PubChem BioAssay (NCI).
Values joined by “and” are separate entries in the source; they are usually repeats but may differ in a detail not shown here. Equal values may be shown once.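 Five concentrations, 48 hours, 96-well plates. Here, GI50 denotes the concentration required for 50% inhibition of growth. TGI: total growth inhibition.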

What was measured:
Test in all cases: inhibition of tumour cell growth, NCI panel, 48 h
[1] = system: 786-0 renal
[2] = system: A498 renal
[3] = system: A549 NSCLC
[4] = system: ACHN renal
[5] = system: BT-549 breast
[6] = system: CAKI-1 renal
[7] = system: CCRF-CEM leukemia
[8] = system: COLO 205 colon
[9] = system: DU-145 prostate
[10] = system: HCC-2998 colon
[11] = system: HCT-116 colon
[12] = system: HCT-15 colon
[13] = system: HL-60(TB) leukemia
[14] = system: HOP-62 NSCLC
[15] = system: HOP-92 NSCLC
[16] = system: HS 578T breast
[17] = system: HT29 colon
[18] = system: IGROV1 ovarian
[19] = system: K-562 leukemia
[20] = system: KM12 colon
[21] = system: LOX IMVI melanoma
[22] = system: M14 melanoma
[23] = system: MALME-3M melanoma
[24] = system: MCF7 breast
[25] = system: MDA-MB-231 breast
[26] = system: MDA-MB-435
[27] = system: MOLT-4 leukemia
[28] = system: NCI-H226 lung
[29] = system: NCI-H23 lung
[30] = system: NCI-H460 lung
[31] = system: NCI-H522 lung
[32] = system: NCI/ADR-RES ovarian
[33] = system: OVCAR-3 ovarian
[34] = system: OVCAR-4 ovarian
[35] = system: OVCAR-5 ovarian
[36] = system: OVCAR-8 ovarian
[37] = system: PC-3 prostate
[38] = system: RPMI-8226 leukemia
[39] = system: RXF 393 renal
[40] = system: SF-268 CNS
[41] = system: SF-295 CNS
[42] = system: SF-539 CNS
[43] = system: SK-MEL-2 melanoma
[44] = system: SK-MEL-28 melanoma
[45] = system: SK-MEL-5 melanoma
[46] = system: SK-OV-3 ovarian
[47] = system: SN12C renal
[48] = system: SNB-19 CNS
[49] = system: SNB-75 CNS
[50] = system: SR leukemia
[51] = system: SW-620 colon
[52] = system: T-47D breast
[53] = system: TK-10 renal
[54] = system: U251 CNS
[55] = system: UACC-257 melanoma
[56] = system: UACC-62 melanoma
[57] = system: UO-31 renal

In the case of `CCCCCc1c(C)[nH]c(/C=C2\N=C(c3ccc[nH]3)C=C2Oc2ccccc2)c1C`, the GI50 [1] is reported as 0.0172 µM and 0.0118 µM, the TGI [1] is reported as 0.0439 µM and 0.0457 µM and the GI50 [2] is reported as 0.0161 µM and 0.0127 µM. The TGI [2] was 0.069 µM and 0.0508 µM, the GI50 [3] was 0.022 µM and 0.0117 µM and the TGI [3] was 0.0569 µM and 0.0401 µM. The GI50 [4] was 0.0173 µM, the TGI [4] was 0.111 µM and the GI50 [5] was 0.0402 µM and 0.0283 µM. For the same molecule, the TGI [5] was 0.538 µM and 1.05 µM, the GI50 [6] was 0.0233 µM and the TGI [6] was 0.0558 µM and 0.0404 µM. For the same molecule, the GI50 [7] was 0.00949 µM, the TGI [7] was 1.21 µM and 2.16 µM and the GI50 [8] was 0.0305 µM. The TGI [8] was 0.193 µM and 0.0492 µM, the GI50 [9] was 0.0177 µM and the TGI [9] was 0.129 µM and 0.104 µM. The GI50 [10] was 0.0171 µM, the TGI [10] was 0.217 µM and 1 µM and the GI50 [11] was 0.0228 µM. The TGI [11] was 0.129 µM, the GI50 [12] was 0.0196 µM and the TGI [12] was 0.0798 µM and 0.0413 µM. For the same molecule, the GI50 [13] was 0.0384 µM and 0.015 µM, the TGI [13] was 0.343 µM and 0.0656 µM and the GI50 [14] was 0.0322 µM and 0.0272 µM. For the same molecule, the TGI [14] was 1.89 µM and 1.18 µM, the GI50 [15] was 0.0138 µM and the TGI [15] was 0.0577 µM and 0.0326 µM. The GI50 [16] was 0.0213 µM and 0.0111 µM, the TGI [16] was 0.0925 µM and 0.0487 µM and the GI50 [17] was 0.0226 µM. The TGI [17] was 1.37 µM and 1.3 µM, the GI50 [18] was 0.0391 µM and 0.0244 µM and the TGI [18] was 1.49 µM and 1.23 µM. For the same molecule, the GI50 [19] was 0.0263 µM, the TGI [19] was 3.41 µM and the GI50 [20] was 0.0113 µM. The TGI [20] was 0.0494 µM and 0.0138 µM, the GI50 [21] was 0.0143 µM and the TGI [21] was 0.0312 µM. For the same molecule, the GI50 [22] was 0.0213 µM and 0.0103 µM, the TGI [22] was 0.0504 µM and 0.0322 µM and the GI50 [23] was 0.0424 µM and 0.0286 µM. For the same molecule, the TGI [23] was 0.204 µM and 0.115 µM, the GI50 [24] was 0.0326 µM and the TGI [24] was 0.442 µM and 1.05 µM. For the same molecule, the GI50 [25] was 0.00556 µM, the TGI [25] was 0.0295 µM and 0.0181 µM and the GI50 [26] was 0.0218 µM. For the same molecule, the TGI [26] was 0.058 µM, the GI50 [27] was 0.0254 µM and 0.013 µM and the TGI [27] was 0.355 µM and 0.0783 µM. For the same molecule, the GI50 [28] was 0.0191 µM and 0.0745 µM, the GI50 [29] was 0.0299 µM and 0.016 µM and the TGI [29] was 0.668 µM and 0.387 µM. For the same molecule, the GI50 [30] was 0.0231 µM, the TGI [30] was 1.16 µM and 1.05 µM and the GI50 [31] was 0.0182 µM and 0.0181 µM. For the same molecule, the TGI [31] was 0.101 µM and 0.168 µM, the GI50 [32] was 0.0486 µM and 0.0278 µM and the TGI [32] was 0.255 µM and 0.174 µM. For the same molecule, the GI50 [33] was 0.0191 µM and 0.0122 µM, the TGI [33] was 0.0642 µM and 0.0404 µM and the GI50 [34] was 0.0113 µM. For the same molecule, the TGI [34] was 0.265 µM and 1.22 µM, the GI50 [35] was 0.0262 µM and 0.0109 µM and the TGI [35] was 1.07 µM and 0.377 µM. For the same molecule, the GI50 [36] was 0.0277 µM and 0.015 µM, the TGI [36] was 0.138 µM and 0.0567 µM and the GI50 [37] was 0.0306 µM. For the same molecule, the TGI [37] was 1.22 µM and 0.166 µM, the GI50 [38] was 0.0222 µM and the TGI [38] was 0.187 µM and 0.182 µM. The GI50 [39] was 0.0172 µM and 0.0123 µM, the TGI [39] was 0.157 µM and 0.0546 µM and the GI50 [40] was 0.0234 µM. For the same molecule, the TGI [40] was 1.24 µM and 1 µM, the GI50 [41] was 0.0244 µM and the TGI [41] was 0.106 µM. The GI50 [42] was 0.0242 µM and 0.0113 µM, the TGI [42] was 0.0856 µM and 0.0387 µM and the GI50 [43] was 0.0179 µM and 0.0139 µM. For the same molecule, the TGI [43] was 0.0402 µM and 0.0329 µM, the GI50 [44] was 0.0398 µM and 0.0211 µM and the TGI [44] was 0.192 µM and 0.101 µM. For the same molecule, the GI50 [45] was 0.0167 µM and 0.0109 µM, the TGI [45] was 0.034 µM and 0.024 µM and the GI50 [46] was 0.0565 µM and 0.0309 µM. For the same molecule, the TGI [46] was 0.671 µM and 0.628 µM, the GI50 [47] was 0.0363 µM and 0.018 µM and the TGI [47] was 0.232 µM and 0.144 µM. The GI50 [48] was 0.0582 µM and 0.0387 µM, the TGI [48] was 1.46 µM and 1.44 µM and the GI50 [49] was 0.0246 µM and 0.0175 µM. The TGI [49] was 0.0719 µM and 0.0559 µM, the GI50 [50] was 0.0117 µM and the GI50 [51] was 0.0248 µM. The GI50 [52] was 0.0211 µM and 0.0147 µM, the GI50 [53] was 0.0446 µM and 0.0234 µM and the TGI [53] was 0.448 µM and 0.152 µM. For the same molecule, the GI50 [54] was 0.019 µM, the TGI [54] was 0.104 µM and 0.0279 µM and the GI50 [55] was 0.0454 µM and 0.03 µM. For the same molecule, the TGI [55] was 0.354 µM and 0.233 µM, the GI50 [56] was 0.0161 µM and 0.0111 µM and the TGI [56] was 0.0311 µM and 0.0274 µM. The GI50 [57] was 0.0251 µM and 0.0104 µM and the TGI [57] was 0.109 µM and 0.024 µM.
